ChEMBL document CHEMBL3407338, “Synthesis and structure-activity relationship of novel 1,4-diazabicyclo[2.2.2]octane derivatives as potent antimicrobial agents” (Eur J Med Chem, 2015)

Assays:
Staphylococcus aureus [1] = experiment: Antimicrobial activity against 10^4 CFU/ml Staphylococcus aureus ATCC 25923 after 22 hrs by serial microdilution method; assay type: functional; settings: ATCC 25923, 22 h
Pseudomonas aeruginosa [2] = experiment: Antimicrobial activity against 10^7 CFU/ml Pseudomonas aeruginosa ATCC 9027 assessed as reduction in CFU/ml at measured at 10 ug/ml after 22 hrs by time-kill kinetic study relative to control; assay type: functional; design: scale not given: the % may be the effect or the level left
Salmonella enterica [3] = experiment: Antimicrobial activity against Salmonella enterica ATCC 14028 at 1 ug/ml after 24 hrs by agar diffusion method; assay type: functional; settings: ATCC 14028, 24 h, read-out: DIZ
Candida albicans [4] = experiment: Antimicrobial activity against 10^7 CFU/ml Candida albicans ATCC 32354 after 22 hrs by serial microdilution method; assay type: functional; settings: ATCC 32354, 22 h
Salmonella enterica [5] = experiment: Antimicrobial activity against 10^4 CFU/ml Salmonella enterica ATCC 14028 after 22 hrs by serial microdilution method; assay type: functional; settings: ATCC 14028, 22 h
Pseudomonas aeruginosa [6] = experiment: Antimicrobial activity against 10^4 CFU/ml Pseudomonas aeruginosa ATCC 9027 assessed as reduction in CFU/ml at measured at 10 ug/ml after 5 hrs by time-kill kinetic study relative to control; assay type: functional; design: scale not given: the % may be the effect or the level left
Pseudomonas aeruginosa [7] = experiment: Antimicrobial activity against 10^4 CFU/ml Pseudomonas aeruginosa ATCC 9027 assessed as reduction in CFU/ml at measured at 10 ug/ml after 2.5 hrs by time-kill kinetic study relative to control; assay type: functional; design: scale not given: the % may be the effect or the level left
Escherichia coli [8] = experiment: Antimicrobial activity against Escherichia coli ATCC 25922 at 1 ug/ml after 24 hrs by agar diffusion method; assay type: functional; settings: ATCC 25922, 24 h, read-out: DIZ
Pseudomonas aeruginosa [9] = experiment: Antimicrobial activity against 10^7 CFU/ml Pseudomonas aeruginosa ATCC 9027 assessed as reduction in CFU/ml at measured at 10 ug/ml after 5 hrs by time-kill kinetic study relative to control; assay type: functional; design: scale not given: the % may be the effect or the level left
Staphylococcus aureus [10] = experiment: Antimicrobial activity against 10^4 CFU/ml Staphylococcus aureus ATCC 25923 assessed as reduction in CFU/ml at measured at 10 ug/ml after 5 hrs by time-kill kinetic study relative to control; assay type: functional; design: scale not given: the % may be the effect or the level left
Staphylococcus aureus [11] = experiment: Antimicrobial activity against 10^4 CFU/ml Staphylococcus aureus ATCC 25923 assessed as reduction in CFU/ml at measured at 10 ug/ml after 2.5 hrs by time-kill kinetic study relative to control; assay type: functional; design: scale not given: the % may be the effect or the level left
Pseudomonas aeruginosa [12] = experiment: Antimicrobial activity against 10^7 CFU/ml Pseudomonas aeruginosa ATCC 9027 after 22 hrs by serial microdilution method; assay type: functional; settings: ATCC 9027, 22 h
Pseudomonas aeruginosa [13] = experiment: Antimicrobial activity against 10^4 CFU/ml Pseudomonas aeruginosa ATCC 9027 after 22 hrs by serial microdilution method; assay type: functional; settings: ATCC 9027, 22 h
Candida albicans [14] = experiment: Antimicrobial activity against 10^4 CFU/ml Candida albicans ATCC 32354 after 22 hrs by serial microdilution method; assay type: functional; settings: ATCC 32354, 22 h
Escherichia coli [15] = experiment: Antimicrobial activity against 10^7 CFU/ml Escherichia coli ATCC 25922 after 22 hrs by serial microdilution method; assay type: functional; settings: ATCC 25922, 22 h
RPMI-8226 = experiment: Cytotoxicity against human RPMI8226 cells after 72 hrs by MTT assay; assay type: cell-based; settings: RPMI-8226, 72 h
Staphylococcus aureus [16] = experiment: Antimicrobial activity against 10^7 CFU/ml Staphylococcus aureus ATCC 25923 assessed as reduction in CFU/ml at measured at 10 ug/ml after 22 hrs by time-kill kinetic study relative to control; assay type: functional; design: scale not given: the % may be the effect or the level left
Staphylococcus aureus [17] = experiment: Antimicrobial activity against 10^7 CFU/ml Staphylococcus aureus ATCC 25923 after 22 hrs by serial microdilution method; assay type: functional; settings: ATCC 25923, 22 h
MEF = experiment: Cytotoxicity against mouse MEF cells after 72 hrs by MTT assay; assay type: cell-based
HEK-293T = experiment: Cytotoxicity against human HEK293T cells after 72 hrs by MTT assay; assay type: cell-based
Escherichia coli [18] = experiment: Antimicrobial activity against 10^4 CFU/ml Escherichia coli ATCC 25922 after 22 hrs by serial microdilution method; assay type: functional; settings: ATCC 25922, 22 h
Staphylococcus aureus [19] = experiment: Antimicrobial activity against 10^7 CFU/ml Staphylococcus aureus ATCC 25923 assessed as reduction in CFU/ml at measured at 10 ug/ml after 2.5 hrs by time-kill kinetic study relative to control; assay type: functional; design: scale not given: the % may be the effect or the level left
Salmonella enterica [20] = experiment: Antimicrobial activity against 10^7 CFU/ml Salmonella enterica ATCC 14028 after 22 hrs by serial microdilution method; assay type: functional; settings: ATCC 14028, 22 h
[21] = Cytotoxicity against mouse LMTK cells after 72 hrs by MTT assay; assay type: cell-based; settings: L-M(TK-)
Bacillus subtilis [22] = experiment: Antimicrobial activity against 10^4 CFU/ml Bacillus subtilis ATCC 6633 after 22 hrs by serial microdilution method; assay type: functional; settings: ATCC 6633, 22 h
Candida albicans [23] = experiment: Antimicrobial activity against Candida albicans ATCC 32354 at 1 ug/ml after 24 hrs by agar diffusion method; assay type: functional; settings: ATCC 32354, 24 h, read-out: DIZ
Staphylococcus aureus [24] = experiment: Antimicrobial activity against Staphylococcus aureus ATCC 25923 at 1 ug/ml after 24 hrs by agar diffusion method; assay type: functional; settings: ATCC 25923, 24 h, read-out: DIZ
Bacillus subtilis [25] = experiment: Antimicrobial activity against Bacillus subtilis ATCC 6633 at 1 ug/ml after 24 hrs by agar diffusion method; assay type: functional; settings: ATCC 6633, 24 h, read-out: DIZ
Pseudomonas aeruginosa [26] = experiment: Antimicrobial activity against 10^7 CFU/ml Pseudomonas aeruginosa ATCC 9027 assessed as reduction in CFU/ml at measured at 10 ug/ml after 2.5 hrs by time-kill kinetic study relative to control; assay type: functional; design: scale not given: the % may be the effect or the level left
Pseudomonas aeruginosa [27] = experiment: Antimicrobial activity against 10^4 CFU/ml Pseudomonas aeruginosa ATCC 9027 assessed as reduction in CFU/ml at measured at 10 ug/ml after 22 hrs by time-kill kinetic study relative to control; assay type: functional; design: scale not given: the % may be the effect or the level left
Bacillus subtilis [28] = experiment: Antimicrobial activity against 10^7 CFU/ml Bacillus subtilis ATCC 6633 after 22 hrs by serial microdilution method; assay type: functional; settings: ATCC 6633, 22 h
Pseudomonas aeruginosa [29] = experiment: Antimicrobial activity against Pseudomonas aeruginosa ATCC 9027 at 1 ug/ml after 24 hrs by agar diffusion method; assay type: functional; settings: ATCC 9027, 24 h, read-out: DIZ
Staphylococcus aureus [30] = experiment: Antimicrobial activity against 10^7 CFU/ml Staphylococcus aureus ATCC 25923 assessed as reduction in CFU/ml at measured at 10 ug/ml after 5 hrs by time-kill kinetic study relative to control; assay type: functional; design: scale not given: the % may be the effect or the level left
Staphylococcus aureus [31] = experiment: Antimicrobial activity against 10^4 CFU/ml Staphylococcus aureus ATCC 25923 assessed as reduction in CFU/ml at measured at 10 ug/ml after 22 hrs by time-kill kinetic study relative to control; assay type: functional; design: scale not given: the % may be the effect or the level left

`CCCCCCCCCCCC[N+]12CC[N+](CCCCC[N+]34CC[N+](CCCCCCCCCCCC)(CC3)CC4)(CC1)CC2.[Br-].[Br-].[Cl-].[Cl-]` gave an MBC (Staphylococcus aureus [1]) of 6.3 µg/mL, an MIC (Staphylococcus aureus [1]) of 3.1 µg/mL and an Activity (Pseudomonas aeruginosa [2]) of 100%. It also gave a zone of inhibition at 1 µg/mL (Salmonella enterica [3]) of 7 mm, an MBC (Candida albicans [4]) of 12.5 µg/mL and an MIC (Candida albicans [4]) of 12.5 µg/mL. The MBC (Salmonella enterica [5]) was 25 µg/mL, the MIC (Salmonella enterica [5]) was 25 µg/mL and the Activity (Pseudomonas aeruginosa [6]) was 100%. The Activity (Pseudomonas aeruginosa [7]) was 99.9%, the zone of inhibition at 1 µg/mL (Escherichia coli [8]) was 9 mm and the Activity (Pseudomonas aeruginosa [9]) was 100%. It also gave an Activity (Staphylococcus aureus [10]) of 100%, an Activity (Staphylococcus aureus [11]) of 100% and an MBC (Pseudomonas aeruginosa [12]) of 6.3 µg/mL. For the same compound, the MIC (Pseudomonas aeruginosa [12]) was 6.3 µg/mL, the MBC (Pseudomonas aeruginosa [13]) was < 1.6 µg/mL and the MIC (Pseudomonas aeruginosa [13]) was < 1.6 µg/mL. It also gave an MBC (Candida albicans [14]) of 6.3 µg/mL, an MIC (Candida albicans [14]) of 3.1 µg/mL and an MBC (Escherichia coli [15]) of 6.3 µg/mL. It also gave an MIC (Escherichia coli [15]) of 6.3 µg/mL, an IC50 (RPMI-8226) of 11.7 µg/mL and an Activity (Staphylococcus aureus [16]) of 100%. It also gave an MBC (Staphylococcus aureus [17]) of 12.5 µg/mL, an MIC (Staphylococcus aureus [17]) of 6.3 µg/mL and an IC50 (MEF) of 12.7 µg/mL. For the same compound, the IC50 (HEK-293T) was 23.4 µg/mL, the MBC (Escherichia coli [18]) was 3.1 µg/mL and the MIC (Escherichia coli [18]) was 3.1 µg/mL. The Activity (Staphylococcus aureus [19]) was 100%, the MBC (Salmonella enterica [20]) was 50 µg/mL and the MIC (Salmonella enterica [20]) was 25 µg/mL. For the same compound, the IC50 [21] was 25.6 µg/mL, the MBC (Bacillus subtilis [22]) was < 1.6 µg/mL and the MIC (Bacillus subtilis [22]) was < 1.6 µg/mL. The zone of inhibition at 1 µg/mL (Candida albicans [23]) was 10 mm, the zone of inhibition at 1 µg/mL (Staphylococcus aureus [24]) was 10 mm and the zone of inhibition at 1 µg/mL (Bacillus subtilis [25]) was 10 mm. For the same compound, the Activity (Pseudomonas aeruginosa [26]) was 100%, the Activity (Pseudomonas aeruginosa [27]) was 100% and the MBC (Bacillus subtilis [28]) was 3.1 µg/mL. The MIC (Bacillus subtilis [28]) was 3.1 µg/mL, the zone of inhibition at 1 µg/mL (Pseudomonas aeruginosa [29]) was 7 mm and the Activity (Staphylococcus aureus [30]) was 100%. For the same compound, the Activity (Staphylococcus aureus [31]) was 100%.
